Assay [1] deals with ENT1 and ENT2. The arrangement: method as in Ward et al., 2000. The following applies: substrate affinity; ref Ward et al., 2000; cited from earlier work.
The next assay has as its target T1, ENT1 (Homo sapiens, UniProt Q99808).
T1 construct: expressed in transfected cells
T1 sequence (Q99808 1-456): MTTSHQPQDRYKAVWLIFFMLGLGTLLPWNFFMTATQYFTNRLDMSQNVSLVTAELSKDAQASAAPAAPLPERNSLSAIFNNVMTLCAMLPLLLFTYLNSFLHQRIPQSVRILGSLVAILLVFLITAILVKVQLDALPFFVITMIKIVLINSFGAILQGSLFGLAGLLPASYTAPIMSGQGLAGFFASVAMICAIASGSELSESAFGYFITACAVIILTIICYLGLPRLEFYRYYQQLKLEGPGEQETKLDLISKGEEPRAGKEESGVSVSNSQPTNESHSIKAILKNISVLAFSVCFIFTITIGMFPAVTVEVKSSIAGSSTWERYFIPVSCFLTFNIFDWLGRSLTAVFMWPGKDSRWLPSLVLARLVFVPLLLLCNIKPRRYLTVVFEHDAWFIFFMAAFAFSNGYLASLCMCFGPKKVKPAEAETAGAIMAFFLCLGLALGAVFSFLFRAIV
Nature of the assay: [3H]uridine uptake in PK15NTD/ENT1 cells. The assay is classed as cell-based. To be noted: for IC50: [3H]uridine 1 μM, 1 min, PK15NTD/ENT1 cells, read-out: IC50 against ENT1. How it is done: (§1) Nucleoside transporter-deficient porcine kidney fibroblast cells (PK15NTD) stably transfected with cloned human ENT1 or ENT2 ([Ward et al., 2000]) were used as the in vitro models. The cells were cultured in Dulbecco’s Modified Eagle’s Medium (DMEM) supplemented with 10% (v/v) foetal bovine serum, 0.5 mg/ml geneticin, 100 units/ml penicillin, 100 μg/ml streptomycin and 0.25 μg/ml of amphotericin B at 37°C in 5% CO2/95% air.
(§2) Confluent monolayers of PK15NTD/ENT1 and PK15NTD/ENT2 cells in 24-well plates were washed thrice with HEPES-buffered Ringer’s solution containing (mM): 135 NaCl, 10 glucose, 5 KCl, 5 HEPES, 3.33 NaH2PO4, 1.0 CaCl2, 1.0 MgCl2, 0.83 Na2HPO4; pH 7.4. The cells were incubated with different concentrations of FPMINT analogues (from 10 nM to 100 μM) containing [^3H]uridine (2 μCi/ml, 1 μM) for 1 min. Passive uridine uptake was determined by incubating the cells in HEPES-buffered Ringer’s solution containing [^3H]uridine in the presence of 0.5 mM NBMPR. The cells were rapidly washed five times with ice-cold phosphate-buffered saline (PBS). After air-drying, the cells were solubilised by overnight incubation in 500 μl of 5% Triton-X100. Next, 300 μl of the cell lysates were mixed with 2 ml of scintillation liquid. The radioactivity of each sample was quantified by a scintillation counter. The protein content in each well was determined spectrophotometrically using a commercial bicinchoninic acid assay (Pierce Biochemicals, Rockford, IL). Uptake values were expressed as picomoles of [^3H]uridine per milligram of cellular protein per minute.
(§3) All data were analysed by GraphPad Prism software (San Diego, CA, United States). Data are expressed as mean ± standard error (SE) of three experiments performed in triplicate. The IC50 values were determined from the dose-response curves fitted with a logistic function. For the kinetic study of [^3H]uridine uptake, apparent K m and V max values were determined from the Michaelis-Menten equation, and K i was determined from the X-intercept of linear regression. Analysis of variance and Student’s t-test were performed for multiple and paired variables, respectively. p values of <0.05 were considered to be statistically significant.

For another assay, the target named is T2, ENT2 (Homo sapiens, UniProt Q14542).
T2 construct: expressed in transfected cells
T2 sequence (Q14542 1-456): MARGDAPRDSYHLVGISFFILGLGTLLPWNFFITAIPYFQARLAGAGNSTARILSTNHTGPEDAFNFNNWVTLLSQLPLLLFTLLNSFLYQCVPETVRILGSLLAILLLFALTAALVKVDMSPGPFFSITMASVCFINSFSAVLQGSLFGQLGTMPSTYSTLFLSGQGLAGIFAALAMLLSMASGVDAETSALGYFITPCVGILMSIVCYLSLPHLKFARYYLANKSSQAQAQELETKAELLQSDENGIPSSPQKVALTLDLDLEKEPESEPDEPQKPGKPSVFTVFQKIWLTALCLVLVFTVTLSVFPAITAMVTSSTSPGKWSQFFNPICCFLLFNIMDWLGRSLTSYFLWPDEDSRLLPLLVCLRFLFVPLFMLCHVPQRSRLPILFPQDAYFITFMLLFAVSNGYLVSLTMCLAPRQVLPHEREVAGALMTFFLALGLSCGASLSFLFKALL
In words: [3H]uridine uptake in PK15NTD/ENT2 cells. In kind it is cell-based. To be noted: for IC50: [3H]uridine 1 μM, 1 min, PK15NTD/ENT2 cells, read-out: IC50 against ENT2; for selectivity to ENT2 over ENT1: more selective to ENT2 than to ENT1, from IC50 values; for effect on ENT2: [3H]uridine uptake, 10 nM–100 μM analogue. How it is done: as §1
as §2, with “The” for “Confluent monolayers of PK15NTD/ENT1 and PK15NTD/ENT2 cells in 24-well plates were washed thrice with HEPES-buffered Ringer’s solution containing (mM): 135 NaCl, 10 glucose, 5 KCl, 5 HEPES, 3.33 NaH2PO4, 1.0 CaCl2, 1.0 MgCl2, 0.83 Na2HPO4; pH 7.4. The”
as §3

In assay [2] the test system is ENT1 and ENT2. The following applies: ref Ward et al., 2000, cited from earlier work; for fold more potent in inhibiting ENT1 than in inhibiting ENT2: Playa et al., 2014.
For another assay, the system named is ENT3. The arrangement: method as in Baldwin et al., 2005; Barnes et al., 2006. To be noted: ref Baldwin et al., 2005; Barnes et al., 2006; cited from earlier work.
A further assay deals with ENT4. The arrangement: method as in Baldwin et al., 2005; Barnes et al., 2006. The following applies: ref Baldwin et al., 2005; Barnes et al., 2006; cited from earlier work.

Data on 14 compounds can be found in paper PMC8899516, “Structure-Activity Relationship Studies of 4-((4-(2-fluorophenyl)piperazin-1-yl)methyl)-6-imino-N-(naphthalen-2-yl)-1,3,5-triazin-2-amine (FPMINT) Analogues as Inhibitors of Human Equilibrative Nucleoside Transporters” (Frontiers in Pharmacology, 2022).

Consider `Cc1cn([C@H]2C[C@H](O)[C@@H](CO)O2)c(=O)[nH]c1=O` [thymidine], for which the “affinity of ENT1 fold higher than that of ENT2” value with ENT1 and ENT2 [1] is 2.6 fold.

Take `Nc1ccn([C@@H]2O[C@H](CO)[C@@H](O)[C@H]2O)c(=O)n1` [cytidine]: the “affinity of ENT1 fold higher than that of ENT2” value with ENT1 and ENT2 [1] is 7.7 fold.

With `Nc1nc2c(ncn2[C@@H]2O[C@H](CO)[C@@H](O)[C@H]2O)c(=O)[nH]1` [guanosine], the “affinity of ENT1 fold higher than that of ENT2” value in the assay with ENT1 and ENT2 [1] is on record as 19.3 fold.

In the case of `CCc1ccc(Nc2nc(N)nc(CN3CCN(c4ccccc4F)CC3)n2)cc1` [Compound 1c], the values for the half-inhibitory concentration (IC50) on ENT1 and on ENT2 were 171 µM and 36.8 µM, respectively. The “selectivity to ENT2 over ENT1” value at ENT2 is 4.647 fold.

Turning to `Nc1ncnc2c1ncn2[C@@H]1O[C@H](CO)[C@@H](O)[C@H]1O` [adenosine], the “affinity of ENT1 fold higher than that of ENT2” value with ENT1 and ENT2 [1] was 2.8 fold.

Take `Nc1nc(CN2CCN(c3cccc(Cl)c3)CC2)nc(Nc2cccc3ccccc23)n1` [Compound 2b]: the IC50 on ENT1 came out at 12.7 µM. In addition, on ENT2, the 50% inhibitory concentration (IC50) turned out to be 2.95 µM and the “selectivity to ENT2 over ENT1” value was 4.29 fold.

Consider `COc1cc(C(=O)OCCCN2CCCN(CCCOC(=O)c3cc(OC)c(OC)c(OC)c3)CC2)cc(OC)c1OC` [dilazep], for which the “fold more potent in inhibiting ENT1 than in inhibiting ENT2” value (“fold more potent in inhibiting ENT1 than” for short) in the assay with ENT1 and ENT2 [2] is recorded as 502 fold.

For the compound `Nc1nc(CN2CCN(c3ccccc3)CC2)nc(Nc2cccc3ccccc23)n1` [Compound 2a], the IC50 on ENT1 is 105 µM. The “effect on ENT2” value on ENT2 is given as “did not inhibit”.

With `OCCN(CCO)c1nc(N2CCCCC2)c2nc(N(CCO)CCO)nc(N3CCCCC3)c2n1` [dipyridamole], in the assay on ENT1 and ENT2 [2], the “fold more potent in inhibiting ENT1 than” value is on record as 71 fold and the “IC50 of ENT2 fold higher than that of ENT1” value is on record as 71 fold. Also, in the assay with ENT3, the “sensitivity of ENT3 to inhibitor” value was “inert”. For the same compound, the “sensitivity of ENT4 to inhibitor” value in the assay on ENT4 was “inert”.

As for `COc1ccc(Nc2nc(N)nc(CN3CCN(c4ccccc4F)CC3)n2)cc1` [Compound 1d], the concentration for half-maximal inhibition (IC50) at ENT1 turned out to be 0.59 µM; on ENT2 it was 77.1 µM.

With `O=[N+]([O-])c1ccc(CSc2ncnc3c2ncn3[C@@H]2O[C@H](CO)[C@@H](O)[C@H]2O)cc1` [NBMPR, S-(4-nitrobenzyl)-6-thioinosine], in the assay on ENT1 and ENT2 [2], the “fold more potent in inhibiting ENT1 than” value is recorded as 7,000 fold and the “IC50 of ENT2 fold higher than that of ENT1” value is listed as 7,000 fold. Moreover, in the assay on ENT3, the “sensitivity of ENT3 to inhibitor” value is on record as “inert”. In addition, the “sensitivity of ENT4 to inhibitor” value with ENT4 is listed as “inert”.

Take `Nc1nc(CN2CCN(c3ccccc3F)CC2)nc(Nc2cccc(Cl)c2)n1` [Compound 1b]: the IC50 at ENT1 came out at 1.82 µM. Also, the “effect on ENT2” value on ENT2 is “no effect”.

Take `Nc1nc(CN2CCN(c3ccccc3F)CC2)nc(Nc2ccccc2)n1` [Compound 1a]: the “effect on ENT1” value on ENT1 ([3H]uridine uptake, 10 nM–100 μM analogue) is given as “negligible effects”. The “effect on ENT2” value at ENT2 is “negligible effects”.

On to `Nc1nc(CN2CCN(c3ccc(F)cc3)CC2)nc(Nc2cccc(Cl)c2)n1` [Compound 3b], for which the IC50 at ENT1 came to 1.65 µM. Further, the “effect on ENT2” value at ENT2 was “did not inhibit”.

A word on the IC50: it is the point on the concentration scale where inhibition reaches its midpoint.
